Patent EP1538159A1, “Substituted N-benzyl-lactam derivatives as melanocortin-4 receptor agonists” (Santhera Pharmaceuticals (Schweiz) GmbH, priority 2003, dated 2005)

Legend:
hMC-4R [1] = biological target: T1, hMC-4R (Homo sapiens, UniProt P32245); assay: Membrane binding assay (fluorescence polarization, fluorescence labeled NDP-alpha-MSH competition); conditions: HEK293 cell membrane preparations
T1 construct: expressed in transfected cells; host or cells: HEK293
Procedure: (§1) A membrane binding assay is used to identify competitive inhibitors of fluorescence labeled NDP-alpha-MSH binding to HEK293 cell membrane preparations expressing human melanocortin receptors.
(§2) The test compound or unlabeled NDP-alpha-MSH is dispensed at varying concentrations to a 384 well microtiter plate. Fluorescence labeled NDP-alpha-MSH is dispensed at a single concentration, followed by addition of membrane preparations. The plate is incubated for 5 h at room temperature.
(§3) The degree of fluorescence polarization is determined with a fluorescence polarization microplate reader.

hMC-4R [2] = biological target: T1, hMC-4R; assay: Functional cellular cAMP assay (fluorescence polarization); type: cell-based; conditions: for EC50: HEK293 cells, cAMP production; for % activation: cAMP production compared to stimulation with NDP-alpha-MSH; for fold improvement of functional activity: compared with WO030009850A1, Examples 1 and 34; for fold better functional activity: hMC4 EC50 compared with WO030009850A1, Example 166
Procedure: A functional cellular assay, based on competition between unlabeled cAMP and a fixed quantity of fluorescence labeled cAMP for a limited number of binding sites on a cAMP specific antibody, is used to discriminate melanocortin receptor agonists from antagonists by fluorescence polarization.
HEK293 cells expressing one of the human melanocortin receptors are transferred to 384 well microtiter plates, an appropriate amount of cAMP antibody is added, followed by the addition of different concentrations of the test compound to effect cAMP production. Cells are lysed and a fluorescence labeled cAMP conjugate is dispensed. The plate is read on a fluorescence polarization microplate reader and the amount of cAMP produced as a response to a test compound is compared to the production of cAMP resulting from stimulation with NDP-alpha-MSH.
To define antagonistic activity of a test compound, the compound is dispensed at different concentrations to cells stimulated by an appropriate amount of NDP-α-MSH. Inhibition of cAMP production is determined by comparing the inhibition of cAMP production of the test compound to the inhibition of cAMP production by a known inhibitor tested at the same concentrations.

hMC-3R = biological target: T2, hMC-3R (Homo sapiens, UniProt P41968); assay: Membrane binding assay (fluorescence polarization, fluorescence labeled NDP-alpha-MSH competition); conditions: HEK293 cell membrane preparations
T2 construct: expressed in transfected cells; host or cells: HEK293
Procedure: as §1, §2, §3

hMC-5R = biological target: T3, hMC-5R (Homo sapiens, UniProt P33032); assay: as above; conditions: HEK293 cell membrane preparations
T3 construct: expressed in transfected cells; host or cells: HEK293
Procedure: as §1, §2, §3

T3 sequence (P33032 whole entry): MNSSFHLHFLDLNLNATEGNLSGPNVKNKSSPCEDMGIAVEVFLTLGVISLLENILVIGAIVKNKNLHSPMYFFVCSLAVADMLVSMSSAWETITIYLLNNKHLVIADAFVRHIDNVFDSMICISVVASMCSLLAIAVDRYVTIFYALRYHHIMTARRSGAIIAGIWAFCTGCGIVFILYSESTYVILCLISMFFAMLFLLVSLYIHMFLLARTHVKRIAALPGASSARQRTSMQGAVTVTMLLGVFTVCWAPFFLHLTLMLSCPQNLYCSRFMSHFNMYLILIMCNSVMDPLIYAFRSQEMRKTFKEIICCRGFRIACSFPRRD
T1 sequence (P32245 whole entry): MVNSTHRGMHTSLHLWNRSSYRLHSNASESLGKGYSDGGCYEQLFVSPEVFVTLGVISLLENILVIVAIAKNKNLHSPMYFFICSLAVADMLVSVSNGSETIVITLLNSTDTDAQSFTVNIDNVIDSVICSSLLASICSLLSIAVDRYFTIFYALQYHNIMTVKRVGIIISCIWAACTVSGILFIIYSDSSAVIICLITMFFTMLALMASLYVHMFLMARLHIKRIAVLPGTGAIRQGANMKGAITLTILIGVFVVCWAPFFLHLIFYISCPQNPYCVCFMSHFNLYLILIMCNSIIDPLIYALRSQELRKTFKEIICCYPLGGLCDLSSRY
T2 sequence (P41968 whole entry): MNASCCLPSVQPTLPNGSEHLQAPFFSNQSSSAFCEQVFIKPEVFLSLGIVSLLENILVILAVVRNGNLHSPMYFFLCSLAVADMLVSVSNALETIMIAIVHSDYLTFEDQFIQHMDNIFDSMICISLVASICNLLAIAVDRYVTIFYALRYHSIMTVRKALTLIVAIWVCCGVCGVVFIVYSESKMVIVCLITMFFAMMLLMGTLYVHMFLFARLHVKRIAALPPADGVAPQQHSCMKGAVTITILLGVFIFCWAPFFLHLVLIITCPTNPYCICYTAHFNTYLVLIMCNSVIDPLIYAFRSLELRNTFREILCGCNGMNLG

| IC50 (hMC-4R [1]) [nM] | EC50 (hMC-4R [2]) [nM] | % activation (hMC-4R [2]) [%] | IC50 (hMC-5R) [nM] | IC50 (hMC-3R) [nM] | Functional Activity hMC-4R, % @10 µM (hMC-4R [2]; @10 µM) [%@10 µM] | Compound | Binding Activity hMC-3R, % @10 uM (hMC-3R) [%@10 uM] | fold improvement of functional activity (hMC-4R [2]) | fold better functional activity (hMC-4R [2]) [fold] |
| --- | --- | --- | --- | --- | --- | --- | --- | --- | --- |
| 17 | 60 | 112 | 807 | 7200 |  | O=C(N[C@H](Cc1ccc(Cl)cc1)C(=O)N1CCC(c2ccccc2CN2CCCC2=O)CC1)[C@H]1Cc2ccccc2CN1 [Example 1] |  |  |  |
| 29 | 260 | 109 | 1300 |  |  | O=C(N[C@H](Cc1ccc(Cl)cc1)C(=O)N1CCN(c2ccccc2CN2CCCC2=O)CC1)[C@H]1Cc2ccccc2CN1 [Example 3] | 41 | more than 14 fold | 11 |
| 40 | 1020 | 107 | 3300 | 5200 |  | O=C(N[C@H](Cc1ccc(Cl)cc1)C(=O)N1CCC(c2ccccc2CN2CCCC2=O)CC1)C1CNC1 [WO030009847 Example 153, (R)-azetidine-3-carboxylic acid (1-(4-chloro-benzyl)-2-oxo-2-{4-[2-(2-oxo-pyrrolidin-1-ylmethyl)-phenyl]-piperidin-1-yl}-ethyl)-amide, reference compound] |  |  |  |
| 500 | 3740 | 96 |  |  |  | CS(=O)(=O)Nc1ccccc1N1CCN(C(=O)[C@@H](Cc2ccc(Cl)cc2)NC(=O)[C@H]2Cc3ccccc3CN2)CC1 [WO030009850 Example 1, (R,R)-1,2,3,4-tetrahydro-isoquinoline-3-carboxylic acid {1-(4-chloro-benzyl)-2-[4-(2-methanesulfonylamino-phenyl)-piperazin-1-yl]-2-oxo-ethyl}-amide, reference compound] |  |  |  |
| 2900 |  |  |  |  | 11 | CS(=O)(=O)Nc1ccccc1N1CCN(C(=O)[C@@H](Cc2ccc(Cl)cc2)NC(=O)C2CNC2)CC1 [WO030009850 Example 34, (R)-azetidine-3-carboxylic acid {1-(4-chloro-benzyl)-2-[4-(2-methanesulfonylamino-phenyl)-piperazin-1-yl]-2-oxo-ethyl}-amide, reference compound] |  |  |  |
| 110 | 2850 | 90 | 6900 | 19200 |  | O=C(N[C@H](Cc1ccc(Cl)cc1)C(=O)N1CCN(c2ccccc2CN2CCCC2=O)CC1)C1CNC1 [WO030009850 Example 166, (R)-azetidine-3-carboxylic acid (1-(4-chloro-benzyl)-2-oxo-2-{4-[2-(2-oxo-pyrrolidin-1-ylmethyl)-phenyl]-piperazin-1-yl}-ethyl)-amide, reference compound] |  |  |  |

| Compound | IC50 (hMC-4R [1]) [nM] | EC50 (hMC-4R [2]) [nM] | % activation (hMC-4R [2]) [%] | IC50 (hMC-5R) [nM] | IC50 (hMC-3R) [nM] | Functional Activity hMC-4R, % @10 µM (hMC-4R [2]; @10 µM) [%@10 µM] | Binding Activity hMC-3R, % @10 uM (hMC-3R) [%@10 uM] | fold improvement of functional activity (hMC-4R [2]) | fold better functional activity (hMC-4R [2]) [fold] |
| --- | --- | --- | --- | --- | --- | --- | --- | --- | --- |
| NC1c2ccccc2CCC1C(=O)N[C@H](Cc1ccc(Cl)cc1)C(=O)N1CCC(c2ccccc2CN2CCCC2=O)CC1 (single isomer, unassigned) [Example 2A] | 17 | 101 | 86 |  |  |  |  |  |  |
| NC1c2ccccc2CCC1C(=O)N[C@H](Cc1ccc(Cl)cc1)C(=O)N1CCC(c2ccccc2CN2CCCC2=O)CC1 (single isomer, unassigned) [Example 2B] | 7 | 29 | 90 |  |  |  |  |  |  |
| NC1c2ccccc2CCC1C(=O)N[C@H](Cc1ccc(Cl)cc1)C(=O)N1CCN(c2ccccc2CN2CCCC2=O)CC1 (single isomer, unassigned) [Example 4B] | 21 | 180 | 91 | 1800 |  |  | 47 | > 21 fold | 16 |
